Assay results reported in ChEMBL document CHEMBL6127048, “Water-soluble and predictable-release triptolide prodrugs block bleomycin-induced pulmonary fibrosis in mice” (Eur J Med Chem, 2024).
≈ marks a conversion by molar mass, not a printed value. Values belong to the compound of their own block, whether it stands above or below them. Calls of active or inactive are those of the source. The calls are words filed in the database; no cut-off is given here.

Assays:
[1] = Solubility of compound in water by HPLC analysis; format: physicochemical
[2] = Stability of compound in PBS buffer at pH 7.4 assessed as half life; format: physicochemical
[3] = Stability in mouse plasma assessed as half life measured upto 24 hrs by HPLC analysis; format: ADME, cell-free
[4] = Stability in human plasma assessed as half life measured upto 24 hrs by HPLC analysis; format: ADME, cell-free
HLF [5] = assay: Upregulation of ADAM 10 expression in TGF-beta1-induced human HLF at 5 to 20 nM; format: functional, cell-based; details: dose 5-20 nM
Mus musculus [6] = assay: Anti-fibrotic activity in bleomycin-induced pulmonary fibrosis C57BL/6 mouse model assessed as decrease in myofibroblast by measuring alpha-SMA level at 0.33 to 0.66 mg/kg, ip pretreated with bleomycin for 5 days and followed by compound administration for 15 days; format: functional, organism-based; details: dose 0.33-0.66 mg/kg, time 15.0 day
[7] = Toxicity in C57BL/6 mouse assessed as change in BUN level at 0.33 mg/kg, ip measured after 15 days; format: organism-based; details: in vivo, 360 h, time 15 day
[8] = Toxicity in C57BL/6 mouse assessed as change in ALT level at 0.33 mg/kg, ip measured after 15 days; format: organism-based; details: in vivo, 360 h, time 15 day
[9] = Clearance in Kunming mouse at 1 mg/kg, iv measured upto 48 hrs by LC/MS analysis; format: ADME, organism-based; details: in vivo
Mus musculus [10] = assay: Anti-fibrotic activity in bleomycin-induced pulmonary fibrosis C57BL/6 mouse model assessed as decrease in hydroxyproline level in lung at 0.33 to 0.66 mg/kg, ip pretreated with bleomycin from day 1 and followed by compound administration for 15 days; format: functional, organism-based; details: dose 0.33-0.66 mg/kg, time 15.0 day
[11] = (§1) Prodrug conversion of the compound in phosphate buffer saline at pH 6.5 assessed as (6aS,7aS,8R,8aR,9aS,9bS,10aS,10bS)-8-hydroxy-8a-isopropyl-10b-methyl-2,5,5b,6,6a,8,8a,9a,9b,10b-decahydrotris(oxireno)[2',3':4b,5;2'',3'':6,7;2''',3''':8a,9]phenanthro[1,2-c]furan-3(1H)-one formation by measuring half life; format: ADME
Mus musculus [12] = assay: Anti-fibrotic activity in bleomycin-induced pulmonary fibrosis C57BL/6 mouse model assessed as infiltrated interstitial matrix in lung at 0.33 mg/kg, ip pretreated with bleomycin for 5 days and followed by compound administration for 15 days by H and E staining based analysis; format: functional, organism-based; details: time 15.0 day
[13] = Half life in Kunming mouse at 1 mg/kg, iv measured upto 48 hrs by LC/MS analysis; format: ADME, organism-based; details: in vivo
Mus musculus [14] = assay: Anti-fibrotic activity in bleomycin-induced pulmonary fibrosis C57BL/6 mouse model assessed as downregulation of ADAM 10 level in BALF at 0.66 mg/kg, ip pretreated with bleomycin for 5 days and followed by compound administration for 15 days by ELISA analysis; format: functional, organism-based; details: time 15.0 day
Mus musculus [15] = assay: Anti-fibrotic activity in bleomycin-induced pulmonary fibrosis C57BL/6 mouse model assessed as increase in body weight at 0.33 mg/kg, ip pretreated with bleomycin for 5 days and followed by compound administration for 14 days; format: functional, organism-based; details: time 14.0 day
Mus musculus [16] = assay: Anti-fibrotic activity in bleomycin-induced pulmonary fibrosis C57BL/6 mouse model assessed as decrease in TGF-beta1 level in BALF at 0.66 mg/kg, ip pretreated with bleomycin for 5 days and followed by compound administration for 15 days by ELISA analysis; format: functional, organism-based; details: time 15.0 day
[17] = Toxicity in C57BL/6 mouse assessed as change in creatinine level at 0.33 mg/kg, ip measured after 15 days; format: organism-based; details: in vivo, 360 h, time 15 day
Mus musculus [18] = assay: Anti-fibrotic activity in bleomycin-induced pulmonary fibrosis C57BL/6 mouse model assessed as appearance of red collagen deposits in lung at 0.33 mg/kg, ip pretreated with bleomycin for 5 days and followed by compound administration for 15 days by H and E staining based analysis; format: functional, organism-based; details: time 15.0 day
[19] = as §1, with “8” for “6.5”; format: ADME
HLF [20] = assay: Inhibition of sEphrin-B2 expression level in human HLF at 20 nM; format: functional, cell-based
[21] = MRT (0 to t) in Kunming mouse at 1 mg/kg, iv measured upto 48 hrs by LC/MS analysis; format: ADME, organism-based; details: in vivo
[22] = AUC (0 to infinity) in Kunming mouse at 1 mg/kg, iv measured upto 48 hrs by LC/MS analysis; format: ADME, organism-based; details: in vivo
Mus musculus [23] = assay: Anti-fibrotic activity in bleomycin-induced pulmonary fibrosis C57BL/6 mouse model assessed as infiltrated interstitial matrix in lung at 60 mg/kg, po pretreated with bleomycin for 5 days and followed by compound administration for 15 days by H and E staining based analysis; format: functional, organism-based; details: time 15.0 day
[24] = MRT(0 to infinity) in Kunming mouse at 1 mg/kg, iv measured upto 48 hrs by LC/MS analysis; format: ADME, organism-based; details: in vivo
HLF [25] = assay: Inhibition of TGF-betal induced alpha-SMA production in human HLF at 5 to 20 nM incubated for 2 hrs by DAPI staining based laser scanning confocal microscopic analysis; format: functional, cell-based; details: dose 5-20 nM
[26] = Toxicity in C57BL/6 mouse assessed as pathological changes in liver at 0.33 mg/kg, ip measured after 15 days; format: organism-based; details: in vivo, 360 h, time 15 day
Mus musculus [27] = assay: Anti-fibrotic activity in bleomycin-induced pulmonary fibrosis C57BL/6 mouse model assessed as attenuation of collagen accumulation in lung at 0.33 mg/kg, ip pretreated with bleomycin for 5 days and followed by compound administration for 15 days by Masson staining based analysis; format: functional, organism-based; details: time 15.0 day
[28] = as §1, with “7.4” for “6.5”; format: ADME
[29] = Cytotoxicity in human HLF upto 0.625 uM; format: toxicity, cell-based
[30] = Toxicity in C57BL/6 mouse assessed as change in AST level at 0.33 mg/kg, ip measured after 15 days; format: organism-based; details: in vivo, 360 h, time 15 day
Mus musculus [31] = assay: Anti-fibrotic activity in bleomycin-induced pulmonary fibrosis C57BL/6 mouse model assessed as decrease in lung index at 0.33 mg/kg, ip pretreated with bleomycin for 5 days and followed by compound administration for 15 days; format: functional, organism-based; details: time 15.0 day
Mus musculus [32] = assay: Anti-fibrotic activity in bleomycin-induced pulmonary fibrosis C57BL/6 mouse model assessed as decrease in hydroxyproline level in lung at 0.33 to 0.66 mg/kg, ip pretreated with bleomycin for 5 days and followed by compound administration for 15 days; format: functional, organism-based; details: dose 0.33-0.66 mg/kg, time 15.0 day
Mus musculus [33] = assay: Anti-fibrotic activity in bleomycin-induced pulmonary fibrosis C57BL/6 mouse model assessed as decrease in TGF-beta1 level in BALF at 0.66 mg/kg, ip pretreated with bleomycin from day 1 and followed by compound administration for 15 days by ELISA analysis; format: functional, organism-based; details: time 15.0 day
[34] = Volume of distribution in Kunming mouse at 1 mg/kg, iv measured upto 48 hrs by LC/MS analysis; format: ADME, organism-based; details: in vivo
[35] = Toxicity in C57BL/6 mouse assessed as pathological changes in kidney at 0.33 mg/kg, ip measured after 15 days; format: organism-based; details: in vivo, 360 h, time 15 day
Mus musculus [36] = assay: Anti-fibrotic activity in bleomycin-induced pulmonary fibrosis C57BL/6 mouse model assessed as downregulation of sEphrin-B2 level in BALF at 0.33 to 0.66 mg/kg, ip pretreated with bleomycin for 5 days and followed by compound administration for 15 days by ELISA analysis; format: functional, organism-based; details: dose 0.33-0.66 mg/kg, time 15.0 day
Mus musculus [37] = assay: Anti-fibrotic activity in bleomycin-induced pulmonary fibrosis C57BL/6 mouse model at 0.66 mg/kg, ip pretreated with bleomycin for 5 days and followed by compound administration for 15 days; format: functional, organism-based; details: time 15.0 day
Mus musculus [38] = assay: Anti-fibrotic activity in bleomycin-induced pulmonary fibrosis C57BL/6 mouse model assessed as appearance of red collagen deposits in lung at 60 mg/kg, po pretreated with bleomycin for 5 days and followed by compound administration for 15 days by H and E staining based analysis; format: functional, organism-based; details: time 15.0 day
Mus musculus [39] = assay: Anti-fibrotic activity in bleomycin-induced pulmonary fibrosis C57BL/6 mouse model assessed as decrease in hydroxyproline level in lung at 60 mg/kg, po pretreated with bleomycin for 5 days and followed by compound administration for 15 days; format: functional, organism-based; details: time 15.0 day
Mus musculus [40] = assay: Anti-fibrotic activity in bleomycin-induced pulmonary fibrosis C57BL/6 mouse model assessed as increase in body weight at 60 mg/kg, po pretreated with bleomycin for 5 days and followed by compound administration for 14 days; format: functional, organism-based; details: time 14.0 day
Mus musculus [41] = assay: Anti-fibrotic activity in bleomycin-induced pulmonary fibrosis C57BL/6 mouse model assessed as decrease in myofibroblast by measuring alpha-SMA level at 60 mg/kg, po pretreated with bleomycin for 5 days and followed by compound administration for 15 days; format: functional, organism-based; details: time 15.0 day
Mus musculus [42] = assay: Anti-fibrotic activity in bleomycin-induced pulmonary fibrosis C57BL/6 mouse model assessed as decrease in lung index at 60 mg/kg, po pretreated with bleomycin for 5 days and followed by compound administration for 15 days; format: functional, organism-based; details: time 15.0 day
Mus musculus [43] = assay: Anti-fibrotic activity in bleomycin-induced pulmonary fibrosis C57BL/6 mouse model assessed as decrease in hydroxyproline level in lung at 60 mg/kg, po pretreated with bleomycin from day 1 and followed by compound administration for 15 days; format: functional, organism-based; details: time 15.0 day

SMILES: CC(C)[C@]12O[C@H]1[C@@H]1O[C@]13[C@]1(O[C@H]1C[C@H]1C4=C(CC[C@@]13C)C(=O)OC4)[C@@H]2OCOP(=O)([O-])[O-].[Na+].[Na+] [MINNELIDE]
solubility [1]: 93.3 mg/mL

SMILES: CC(C)[C@]12O[C@H]1[C@@H]1O[C@]13[C@]1(O[C@H]1C[C@H]1C4=C(CC[C@@]13C)C(=O)OC4)[C@@H]2OC(=O)CCC(=O)[O-].[Na+] [OMTRIPTOLIDE SODIUM]
solubility [1]: 1.39 mg/mL

SMILES: CNCCN(C)C(=O)O[C@@H]1[C@@]2(C(C)C)O[C@H]2[C@@H]2O[C@]23[C@]12O[C@H]2C[C@H]1C2=C(CC[C@@]13C)C(=O)OC2
Activity (HLF [5]): Active | Activity (Mus musculus [6]): Active | Activity [7]: Non-Toxic | half-life [2]: 17.7 h | half-life [3]: 17 h | Activity [8]: Non-Toxic | CL [9]: 15.2 mL/min/kg | Activity (Mus musculus [10]): Active | t1/2 [11]: 81.7 h | Activity (Mus musculus [12]): Active | t1/2 [13]: 7.72 h | Activity (Mus musculus [14]): Active | Activity (Mus musculus [15]): Active | Activity (Mus musculus [16]): Active | Activity [17]: Non-Toxic | Activity (Mus musculus [18]): Active | solubility [1]: 30.8 mg/mL (≈ 64.9 mM) | t1/2 [19]: 4.52 h | inhibition (HLF [20]): Active | MRT last at 48 h [21]: 11.5 h | AUC(0-inf) [22]: 1100 ng·h/mL | Activity (Mus musculus [23]): Active | MRT inf [24]: 14.8 h | inhibition (HLF [25]): Active | Activity [26]: Non-Toxic | Activity (Mus musculus [27]): Active | t1/2 [28]: 17.7 h | Activity [29]: Non-Toxic | Activity [30]: Non-Toxic | half-life [4]: 16.4 h | Activity (Mus musculus [31]): Active | Activity (Mus musculus [32]): Active | Activity (Mus musculus [33]): Active | Vd [34]: 0.119 L/kg | Activity [35]: Non-Toxic | Activity (Mus musculus [36]): Active | Activity (Mus musculus [37]): Active

SMILES: COC(=O)c1ccc2c(c1)NC(=O)/C2=C(\Nc1ccc(N(C)C(=O)CN2CCN(C)CC2)cc1)c1ccccc1
Activity (Mus musculus [38]): Active | Activity (Mus musculus [39]): Active | Activity (Mus musculus [40]): Active | Activity (Mus musculus [41]): Active | Activity (Mus musculus [42]): Active | Activity (Mus musculus [43]): Active

Continued, values first:

half-life [2]: 25.2 h | half-life [3]: 27.3 h | solubility [1]: 12.5 mg/mL (≈ 28 mM) | half-life [4]: 24.5 h
SMILES: CC(C)[C@]12O[C@H]1[C@@H]1O[C@]13[C@]1(O[C@H]1C[C@H]1C4=C(CC[C@@]13C)C(=O)OC4)[C@@H]2OC(=O)NCCN

half-life [2]: 2.46 h | half-life [3]: 1.79 h | solubility [1]: 8.99 mg/mL (≈ 18.5 mM) | half-life [4]: 1.45 h
SMILES: CC(C)[C@]12O[C@H]1[C@@H]1O[C@]13[C@]1(O[C@H]1C[C@H]1C4=C(CC[C@@]13C)C(=O)OC4)[C@@H]2OC(=O)NCC1CCCN1 (some centres not stated)

half-life [2]: 1.85 h | half-life [3]: 1.62 h | solubility [1]: 6.96 mg/mL (≈ 13.9 mM) | half-life [4]: 1.69 h
SMILES: CC(C)[C@]12O[C@H]1[C@@H]1O[C@]13[C@]1(O[C@H]1C[C@H]1C4=C(CC[C@@]13C)C(=O)OC4)[C@@H]2OC(=O)NC1CCCCC1N (some centres not stated)
